Data as given in patent US20070082945A1, “Discodermolide compositions” (priority 2003, published 2007).
≈ marks a conversion by molar mass, not a printed value.

Columns and labels:
[1] = test system: tubulin; details: competition with paclitaxel; cited from earlier work
[2] = Solubility and stability in aqueous media; type: physicochemical
[3] = Storage stability of infusion concentrate vials and infusion solution; type: physicochemical
Protocol: An infusion concentrate comprising 2 mg of discodermolide is dissolved in 98-100% propylene glycol (PG) (1.0 mL) and charged to 6 mL vials. The vials are used for storage and shipment. The vials are stable for a period of at least 2 years at a temperature of 2-8° C. The vehicle is prepared in a separate 2 mL single dose vial. Each mL of solution contains 7.3 mg of sodium chloride USP, and 163 mg of ethanol (EtOH) in water for injection(saline) (16.3% ethanol in 0.9% sodium chloride solution, 2 mL fill). The storage condition is 25° C. for the vehicle. Prior to i.v. administration, 1.6 mL of the vehicle is withdrawn with a sterile disposable syringe and injected into the vial containing the discodermolide. The solution is gently shaken until a clear homogeneous solution for infusion is obtained containing 0.77 mg/mL discodermolide in 40% propylene glycol, 10% ethanol and 50% normal saline. The ratio of discodermolide concentrate to the diluent vehicle in the diluted solution is 1:1.6 v/v. The i.v. solution thus formed is stable for a period of 8 hours at room temperature.

[4] = Solubility of discodermolide in various solvent systems measured by HPLC; type: physicochemical
Protocol: The solubility of discodermolide in various solvent systems is measured by HPLC and the results shown below: […]

[5] = Stability of infusion concentrates diluted 1:5 with 20/80 propylene glycol/0.9% sodium chloride, ambient conditions; type: physicochemical
Protocol: In this example, stability of discodermolide infusion concentrates diluted 1:5 with 20/80 propylene glycol/0.9% sodium chloride solution under ambient conditions is measured. Table 4 describes the amount of degradation product formed over a period of up to 24 hours. The stability is analyzed by determining formation of degradation products in each of the infusion solutions as a function of time and temperature. Each sample is analyzed by HPLC with a UV detector. The solution for infusion was prepared by diluting discodermolide concentrates, 0.6 mg/mL, 2.0 mg/mL and 3.0 mg/mL, with 20/80 propylene glycol/0.9% sodium chloride solution in a 1:5 ratio. The discodermolide concentrate solutions of 0.6 mg/mL, 2.0 mg/mL and 3.0 mg/mL yielded discodermolide solutions for infusions 0.12 mg/mL, 0.4 mg/mL and 0.6 mg/mL, respectively.

[6] = Stability of solution diluted 1:1.6 with 16.3% w/v ethanol in 0.9% sodium chloride, ambient conditions; type: physicochemical; details: 0.77 mg/mL solution for infusion
Protocol: In this example, stability of discodermolide in solution diluted 1:1.6 with 16.3% w/v, ethanol in 0.9% sodium chloride solution (0.77 mg/mL) under ambient conditions is measured. Table 5 describes the amount of degradation product formed over a period of up to 24 hours. The stability is analyzed by determining formation of degradation products in each of the infusion solution as a function of time and temperature. Each sample is analyzed y HPLC with a UV detector. The solution for infusion was prepared by diluting a 2.0 mg/ml discodermolide concentrate with 16.3% ethanol in 0.9% sodium chloride solution in a 1:1.6 ration.

[7] = Effect of organic solvent ratio variation on solubility; type: physicochemical; details: propylene glycol/ethanol/normal saline mixture, aqueous with cosolvent or surfactant or cyclodextrin
[8] = normal saline (0.9% sodium chloride)
[9] = 0.12 mg/mL solution for infusion, 0 hours
[10] = 0.12 mg/mL solution for infusion, 2 hours
[11] = 0.12 mg/mL solution for infusion, 4 hours
[12] = 0.12 mg/mL solution for infusion, 8 hours
[13] = 0.12 mg/mL solution for infusion, 24 hours
[14] = 0.4 mg/mL solution for infusion, 0 hours
[15] = 0.4 mg/mL solution for infusion, 2 hours
[16] = 0.4 mg/mL solution for infusion, 4 hours
[17] = 0.4 mg/mL solution for infusion, 8 hours
[18] = 0.4 mg/mL solution for infusion, 24 hours
[19] = 0.6 mg/mL solution for infusion, 0 hours
[20] = 0.6 mg/mL solution for infusion, 2 hours
[21] = 0.6 mg/mL solution for infusion, 4 hours
[22] = 0.6 mg/mL solution for infusion, 8 hours
[23] = 0.6 mg/mL solution for infusion, 24 hours

In the case of `C=C/C=C\C(C)[C@H](OC(N)=O)[C@@H](C)[C@H](O)[C@@H](C)C/C(C)=C\C(C)C(O)[C@@H](C)/C=C\[C@@H](O)C[C@@H]1OC(=O)[C@H](C)C(O)C1C` (single isomer, unassigned; (+)) [discodermolide, (+)-Discodermolide], the Binding to tubulin [1] is given as “binds to tubulin competitively with paclitaxel”, the “Solubility in aqueous solvents and aqueous-organic mixtures” value [2] is given as “poor solubility” and the “Stability in aqueous solvents and aqueous-organic mixtures” value [2] is given as “poor stability”. For the same compound, the “Degradation on dilution of infusion concentrate” value [2, 8] was “degrades to the hydrolysis product”, the “Precipitation on dilution of infusion concentrate” value [2, 8] was “precipitation of the discodermolide is observed” and the Solubility in water ([2]; water) was “practically insoluble”. For the same compound, the “Period of stability of i.v. solution” value ([3]; 0.77 mg/mL in 40% propylene glycol, 10% ethanol, 50% normal saline, room temperature) was 8 h, the “Period of stability of infusion concentrate vials” value ([3]; 2 mg discodermolide in 1.0 mL 98-100% propylene glycol, 2-8° C.) was “at least 2 years” and the solubility ([4]; 20% PEG 300/80% normal saline, aqueous with cosolvent or surfactant or cyclodextrin) was 20 µg/mL (≈ 33.7 µM). The solubility ([4]; 20% propylene glycol/80% normal saline, aqueous with cosolvent or surfactant or cyclodextrin, 20% PG/80% normal saline) was 130 µg/mL (≈ 219 µM), the solubility ([4]; 30% ethanol/70% normal saline, aqueous with cosolvent or surfactant or cyclodextrin) was 200 µg/mL (≈ 337 µM) and the solubility ([4]; 60% PEG 300/40% normal saline, aqueous with cosolvent or surfactant or cyclodextrin) was 400 µg/mL (≈ 674 µM). The solubility ([4]; 60% ethanol/40% normal saline, aqueous with cosolvent or surfactant or cyclodextrin) was 2300 µg/mL (≈ 3870 µM), the solubility ([4]; 60% propylene glycol/40% normal saline, aqueous with cosolvent or surfactant or cyclodextrin, 60% PG/40% normal saline) was 530 µg/mL (≈ 893 µM) and the solubility ([4]; 100% PEG 300, organic solvent or mixture) was over 20000 µg/mL. The solubility ([4]; 100% ethanol, organic solvent or mixture) was over 20000 µg/mL, the solubility ([4]; 100% propylene glycol, organic solvent or mixture, 100% PG) was over 20000 µg/mL and the Assay [5, 9] was 105.6 % label claim. For the same compound, the “Total Impurities” value [5, 9] was 0.17 % area, the Assay [5, 10] was 105.6 % label claim and the “Total Impurities” value [5, 10] was 0.17 % area. For the same compound, the Assay [5, 11] was 106.4 % label claim, the “Total Impurities” value [5, 11] was 0.21 % area and the Assay [5, 12] was 107.0 % label claim. For the same compound, the “Total Impurities” value [5, 12] was 0.25 % area, the Assay [5, 13] was 104.6 % label claim and the “Total Impurities” value [5, 13] was 0.33 % area. The Assay [5, 14] was 102.3 % label claim, the “Total Impurities” value [5, 14] was 0.23 % area and the Assay [5, 15] was 101.8 % label claim. The “Total Impurities” value [5, 15] was 0.97 % area, the Assay [5, 16] was 102.2 % label claim and the “Total Impurities” value [5, 16] was 1.84 % area. For the same compound, the Assay [5, 17] was 102.0 % label claim, the “Total Impurities” value [5, 17] was 3.35 % area and the Assay [5, 18] was 94.8 % label claim. For the same compound, the “Total Impurities” value [5, 18] was 6.21 % area, the Assay [5, 19] was 103.0 % label claim and the “Total Impurities” value [5, 19] was 0.28 % area. The Assay [5, 20] was 100.0 % label claim, the “Total Impurities” value [5, 20] was 1.49 % area and the Assay [5, 21] was 99.4 % label claim. The “Total Impurities” value [5, 21] was 2.19 % area, the Assay [5, 22] was 98.8 % label claim and the “Total Impurities” value [5, 22] was 3.68 % area. For the same compound, the Assay [5, 23] was 89.9 % label claim, the “Total Impurities” value [5, 23] was 8.90 % area and the Total Impurities ([6]; 0 hours) was 0.20 % area. For the same compound, the Total Impurities ([6]; 2 hours) was 0.23 % area, the Total Impurities ([6]; 4 hours) was 0.34 % area and the Total Impurities ([6]; 8 hours) was 0.47 % area. It also gave a Total Impurities ([6]; 24 hours) of 0.80 % area, a solubility ([7]; PG 38 / EtOH 9 / normal saline 53 (%, w/v)) of 640 µg/mL and a solubility ([7]; PG 38 / EtOH 9.5 / normal saline 52.5 (%, w/v)) of 700 µg/mL. The solubility ([7]; PG 40 / EtOH 8 / normal saline 52 (%, w/v)) was 620 µg/mL, the solubility ([7]; PG 40 / EtOH 9 / normal saline 51 (%, w/v)) was 770 µg/mL and the solubility ([7]; PG 40 / EtOH 9.6 / normal saline 50.4 (%, w/v)) was 870 µg/mL. The solubility ([7]; PG 40 / EtOH 10 / normal saline 50 (%, w/v)) was 960 µg/mL.
